Test results as given in paper PMC10421158, “In Vitro and In Silico Analysis of the Anticancer Effects of Eurycomanone and Eurycomalactone from Eurycoma longifolia” (Plants, 2023).
Like-named read-outs stand apart in the source and are kept apart here.

Experiments:
[1] = tested on: cardiomyocyte (H9C2) normal cell line; test: Sulforhodamine B (SRB) cell viability assay, H9C2; assay type: cell-based; conditions: read-out: IC50 H9C2
Description: (§1) The cancer cell lines used for this study were ovarian cancer (A2780), cervical cancer (HeLa) and colorectal cancer (HT29) as well as normal cardiomyocyte (H9C2) and liver (WRL-68) cell lines. All cell lines were purchased from American Type Culture Collections except A2780, which were purchased from the European Collection of Authenticated Cell Cultures. These cells were subcultured in Dulbecco’s Modified Eagle’s medium (Sigma-Aldrich, St. Louis, MO, USA) and supplemented with 10% fetal bovine serum (Sigma, USA), 1% penicillin–streptomycin (Sigma, USA), 1% amphotericin B (Sigma, USA) and 1% gentamicin (Sigma, USA). The cells were seeded in each well of 96 well plates and incubated in a humidified incubator at 37 °C and 5% carbon dioxide in air for 24 h. Each cell line was then treated with eurycomanone and eurycomalactone at five different concentrations (0.08, 0.4, 2, 10 and 50 µM) in triplicate. Cisplatin and methotrexate (Sigma, USA), known chemo-drugs, were also treated on these cell lines at five different concentrations (0.08, 0.4, 2, 10, 50 µM for cisplatin, 0.0008, 0.004, 0.02, 0.1, 0.5 µM for methotrexate) for the comparative studies. The treated cells were then incubated in the same incubator with the mentioned conditions for 72 h. The experiment was repeated at least three times.
(§2) Sulforhodamine B (SRB) assay had been performed after the treated cells were incubated for 72 h. Briefly, 50 μL of ice cold tricholoroacetic acid (TCA) was added to each well and allowed to stand for 30 min at room temperature, followed by rinsing each well with tap water. Then, 100 μL of 0.4% SRB was added to each well to stain living cells for 30 min followed by a rinse with 1% acetic acid. Finally, 100 μL of Tris buffer was added to each well and the optical density (OD) of the treated and nontreated cells were read at 492 nm with a Magellan V.4 microtiter plate reader (Tecan, Salzburg, Austria). The percentage of cell viability was calculated based on (OD492nm of the treated cells/OD492nm of the nontreated cells) × 100. The IC50 values were determined from the dose–response curve of percentage of cell viability versus the concentration of the compounds (μM). Cells viability assay for each treatment was performed in triplicate in at least three independent experiments, and the IC50 values are given as the mean ± SEM.

[2] = tested on: colorectal (HT29) cancer cell line; test: Sulforhodamine B (SRB) cell viability assay, HT-29; assay type: cell-based; conditions: read-out: IC50 HT-29
Description: as §1, §2

[3] = tested on: ovarian (A2780) cancer cell line; test: Sulforhodamine B (SRB) cell viability assay, A2780; assay type: cell-based; conditions: read-out: IC50 A2780
Description: as §1
as §2, with “Briefly,” for “Sulforhodamine B (SRB) assay had been performed after the treated cells were incubated for 72 h. Briefly,”

[4] = tested on: liver (WRL-68) normal cell line; test: Sulforhodamine B (SRB) cell viability assay, WRL-68; assay type: cell-based; conditions: read-out: IC50 WRL-68
Description: as §1, §2

[5] = tested on: cervical (HeLa) cancer cell line; test: Sulforhodamine B (SRB) cell viability assay, HeLa; assay type: cell-based; conditions: 72 h, read-out: IC50 HeLa
Description: as §1, §2

[6] = tested on: ovarian (A2780), cervical (HeLa) and colorectal (HT29) cancer cells; test: SRB assay, range over the three cancer cell lines; assay type: cell-based; conditions: 72 h, read-out: range of IC50 values in cancer cell lines
Description: as §1
as §2, with “Briefly,” for “Sulforhodamine B (SRB) assay had been performed after the treated cells were incubated for 72 h. Briefly,”, “Cells viability assay for each treatment was performed in triplicate in at least three independent experiments, and the IC50 values are given as the mean ± SEM.” left out

HeLa cells = test: Apoptotic Hoechst 33342 assay, HeLa; assay type: cell-based
Experimental: (§3) A2780, HT-29 and HeLa cancer cell lines were chosen for evaluating the apoptotic effects of eurycomanone and eurycomalactone. The morphological changes of cells undergoing apoptosis were visualised under a fluoresecence microscope after performing the Hoechst 33342 assay. Briefly, 10 × 10^4 cells were seeded for 500 µL/well of four Labtek® Chamber Slides (Thermo Fisher Scientific, Waltham, MA, USA) and incubated in 5% carbon dioxide in air for 24 h for the cells’ attachment. The cells were treated with concentrations of IC50/5, IC50 and IC50 × 5 values of eurycomanone and eurycomalactone in different wells and further incubated for 6, 24 and 48 h, respectively. Nontreated cells were also included in the experimental design, which acted as a negative control in this study. Following this, the media from each well were discarded and cells were fixed with 4% (w/v) paraformaldehyde for 30 min. The cells were then washed with cold phosphate buffer solution (PBS) prior to staining using Hoechst 33342, according to the method of [26]. Quantitative assessment of apoptotic cells were determined by counting apoptotic nuclei from five randomly chosen areas corroborating visual impression based on the morphology shown in Figure 3 and Figure 4. The apoptotic index (number of apoptotic nuclei per total nuclei × 100) was expressed as a percentage of the mean ± S.E.M and analysed using ANOVA followed by Tukey’s multiple comparison test.

HT-29 cells = test: Apoptotic Hoechst 33342 assay, HT-29; assay type: cell-based
Experimental: as §3

A2780 cells = test: Apoptotic Hoechst 33342 assay, A2780; assay type: cell-based
Experimental: as §3

[7] = tested on: Cytochrome P450 (CYP) enzymes; parameters: method as in PMID 23881640; conditions: in vitro assay; cited from earlier work
[8] = parameters: method as in PMID 16206032; conditions: in vivo, given orally; cited from earlier work
[9] = SRB, 72 h, normal cell line, mean ± SEM (n = 9)

Structure (SMILES)	IC50 ([1]; Rattus norvegicus, H9c2, 72 h)	IC50 ([2]; Homo sapiens, HT-29, 72 h)	IC50 ([3]; Homo sapiens, A2780, 72 h)	IC50 [6]	IC50 ([4]; Homo sapiens, WRL68, 72 h)	IC50 ([5]; Homo sapiens, HeLa)	Apoptotic index (HeLa cells; IC50, 6 h)	Apoptotic index (HeLa cells; IC50, 24 h)	Apoptotic index (HeLa cells; IC50, 48 h)	Apoptotic index (HeLa cells; IC50/5, 6 h)	Apoptotic index (HeLa cells; IC50/5, 24 h)	Apoptotic index (HeLa cells; IC50/5, 48 h)	Apoptotic index (HeLa cells; IC50 × 5, 6 h)	Apoptotic index (HeLa cells; IC50 × 5, 24 h)	Apoptotic index (HeLa cells; IC50 × 5, 48 h)	Apoptotic index (HT-29 cells; HT-29, IC50, 6 h)	Apoptotic index (HT-29 cells; HT-29, IC50, 24 h)	Apoptotic index (HT-29 cells; HT-29, IC50, 48 h)	Apoptotic index (HT-29 cells; HT-29, IC50/5, 6 h)	Apoptotic index (HT-29 cells; HT-29, IC50/5, 24 h)	other results
N.N.[Cl][Pt][Cl] [Cisplatin, reference compound]																					IC50 [1, 9]: 14100 ± 1140 nM; IC50 ([2]; SRB, 72 h, mean ± SEM (n = 9)): 1380 ± 37 nM; IC50 ([3]; SRB, 72 h, mean ± SEM (n = 9)): 1770 ± 18 nM; IC50 [4, 9]: 1130 ± 98 nM; IC50 ([5]; SRB, mean ± SEM (n = 9)): 1540 ± 120 nM
CC1=CC(=O)[C@@H](O)[C@@]2(C)[C@H]1CC(=O)[C@@]1(C)[C@H]3C(=O)O[C@H]([C@@H]3C)[C@H](O)[C@@H]12 [Eurycomalactone]	7000 ± 430 nM	2210 ± 49 nM	2460 ± 81 nM	1600 to 2460 nM	2710 ± 42 nM	1600 ± 120 nM	17.67 ± 0.77 ^ab/x %	32.00 ± 1.57 ^ab/xy %	36.71 ± 1.19 ^ab/xz,yz %	5.45 ± 0.23 ^a/x %	8.94 ± 0.21 ^a/xy %	14.78 ± 0.12 ^a/xz,yz %	31.87 ± 2.19 ^ac,bc/x %	62.20 ± 1.35 ^ac,bc/xy %	100.00 ± 0.00 ^ac,bc/xz,yz %	4.51 ± 0.23 ^b/x %	12.41 ± 0.77 ^ab/xy %	14.28 ± 0.84 ^ab/xz,yz %	3.79 ± 0.45 ^a/x %	7.71 ± 0.51 ^a/xy %	Apoptotic index (HT-29 cells; HT-29, IC50/5, 48 h): 8.86 ± 0.68 ^a/xz %; Apoptotic index (HT-29 cells; HT-29, IC50 × 5, 6 h): 6.52 ± 1.22 ^ac,bc/x %; Apoptotic index (HT-29 cells; HT-29, IC50 × 5, 24 h): 20.21 ± 1.52 ^ac,bc/xy %; Apoptotic index (HT-29 cells; HT-29, IC50 × 5, 48 h): 100.00 ± 0.00 ^ac,bc/xz,yz %; Apoptotic index (A2780 cells; A2780, IC50, 6 h): 4.26 ± 0.64 ^b/x %; Apoptotic index (A2780 cells; A2780, IC50, 24 h): 6.29 ± 0.21 ^ab/y %; Apoptotic index (A2780 cells; A2780, IC50, 48 h): 7.93 ± 2.28 ^b/xz %; Apoptotic index (A2780 cells; A2780, IC50/5, 6 h): 3.84 ± 0.10 ^a/x %; Apoptotic index (A2780 cells; A2780, IC50/5, 24 h): 4.12 ± 0.16 ^a/y %; Apoptotic index (A2780 cells; A2780, IC50/5, 48 h): 5.16 ± 0.065 ^a/xz,yz %; Apoptotic index (A2780 cells; A2780, IC50 × 5, 6 h): 15.81 ± 0.38 ^ac,bc/x %; Apoptotic index (A2780 cells; A2780, IC50 × 5, 24 h): Cells died and completely detached ^ac,bc/xy; Apoptotic index (A2780 cells; A2780, IC50 × 5, 48 h): Cells died and completely detached ^ac,bc/xz
C=C1[C@@H](O)[C@]2(O)OC[C@]34[C@H]2[C@@]2(C)[C@H](O)C(=O)C=C(C)[C@@H]2C[C@H]3OC(=O)[C@H](O)[C@@]14O [Eurycomanone]	> 50000 nM	1220 ± 110 nM	1370 ± 130 nM	1220 to 4580 nM	1340 ± 46 nM	4580 ± 90 nM	19.98 ± 0.76 ^ab/x %	52.57 ± 1.40 ^ab/y %	61.16 ± 0.63 ^ab/xz,yz %	8.42 ± 0.20 ^a/x %	13.76 ± 1.26 ^a/xy %	16.79 ± 0.92 ^a/xz,yz %	41.37 ± 0.24 ^ac,bc/x %	94.56 ± 1.16 ^ac,bc/xy %	100.00 ± 0.00 ^ac,bc/xz,yz %	5.24 ± 0.17 ^b/x %	6.30 ± 1.01 ^b/y %	14.80 ± 0.56 ^ab/xz,yz %	4.08 ± 0.81 ^a/x %	4.18 ± 0.21 ^a/y %	inhibition of cytochromes in vitro [7]: no inhibition; oral bioavailability [8]: poorly bioavailable; Apoptotic index (HT-29 cells; HT-29, IC50/5, 48 h): 4.24 ± 0.20 ^a/z %; Apoptotic index (HT-29 cells; HT-29, IC50 × 5, 6 h): 5.97 ± 0.35 ^ac/x %; Apoptotic index (HT-29 cells; HT-29, IC50 × 5, 24 h): 10.95 ± 0.71 ^ac,bc/y %; Apoptotic index (HT-29 cells; HT-29, IC50 × 5, 48 h): 26.20 ± 1.48 ^ac,bc/xz,yz %; Apoptotic index (A2780 cells; A2780, IC50, 6 h): 8.48 ± 0.60 ^ab/x %; Apoptotic index (A2780 cells; A2780, IC50, 24 h): 13.13 ± 1.30 ^ab/y %; Apoptotic index (A2780 cells; A2780, IC50, 48 h): 31.74 ± 3.19 ^ab/xz,yz %; Apoptotic index (A2780 cells; A2780, IC50/5, 6 h): 4.30 ± 0.34 ^a/x %; Apoptotic index (A2780 cells; A2780, IC50/5, 24 h): 7.11 ± 1.60 ^a/xy %; Apoptotic index (A2780 cells; A2780, IC50/5, 48 h): 14.72 ± 0.59 ^a/xz,yz %; Apoptotic index (A2780 cells; A2780, IC50 × 5, 6 h): 13.01 ± 0.29 ^ac,bc/x %; Apoptotic index (A2780 cells; A2780, IC50 × 5, 24 h): 28.90 ± 0.93 ^ac,bc/xy %; Apoptotic index (A2780 cells; A2780, IC50 × 5, 48 h): 100.00 ± 0.00 ^ac,bc/xz,yz %
CN(Cc1cnc2nc(N)nc(N)c2n1)c1ccc(C(=O)N[C@@H](CCC(=O)O)C(=O)O)cc1 [Methotrexate, reference compound]																					IC50 ([1]; Rattus norvegicus, H9c2, SRB, 72 h, normal cell line, mean ± SEM (n = 9)): > 50000 nM; IC50 ([2]; Homo sapiens, HT-29, SRB, 72 h, mean ± SEM (n = 9)): 59 ± 1 nM; IC50 ([3]; Homo sapiens, A2780, SRB, 72 h, mean ± SEM (n = 9)): 16 ± 0.5 nM; IC50 ([6]; range over A2780, HeLa, HT29, SRB): 16 to 94 nM; IC50 ([4]; Homo sapiens, WRL68, SRB, 72 h, normal cell line, mean ± SEM (n = 9)): 15 ± 0.41 nM; IC50 ([5]; Homo sapiens, HeLa, SRB, mean ± SEM (n = 9)): 94 ± 4.3 nM
